Data set [1] has as its system CYP3A4. The data set can be described thus: Plasma 4β-OH cholesterol as biomarker of CYP3A4 activity in mice fed ND or HCD. The format is in vivo. The note with it: hCYP3A mice.
Data set [2] deals with CYP3A4. The data set is classed as in vivo. The note with it: oral TRZ 1 mg/kg; hCYP3A mice fed HCD versus ND.
Data set [3] is classed as in vivo, hCYP3A mice. The following applies: mean ± SD, n = 4.
For data set [4], the system named is CYP3A4. Briefly: Inhibition of TRZ hydroxylation by KCZ in pooled liver microsomes. The format is biochemical, hCYP3A mice. The following applies: 0.01, 0.1 and 1 μM KCZ; pooled liver microsomes of ND and HCD mice.
Data set [5] relates to CYP3A4. The data set can be described thus: In vivo DDI study: KCZ pretreatment before oral TRZ in mice fed ND or HCD. More on the design: species or system hCYP3A mice. The following applies: for Percentage of decline in AUCRα-OH: 40 mg/kg KCZ oral 15 min before oral TRZ 1 mg/kg, versus vehicle.
The mark [6] stands for this setting: hCYP3A mice fed CA-diet (CE-2 + 0.5% CA) for 1 week.
The mark [7] stands for this setting: hCYP3A mice fed ND (CE-2) for 1 week.
Setting [8] is: both ND and HCD mice, 40 mg/kg KCZ oral, TRZ 1 mg/kg oral.

The structures appear in SMILES notation. Like-named read-outs stand apart in the source and are kept apart here.

In the case of `CC(C)CCC[C@@H](C)[C@H]1CC[C@H]2[C@@H]3CC=C4[C@@H](O)[C@@H](O)CC[C@]4(C)[C@H]3CC[C@]12C` [4β‐OH cholesterol, 4β‐Hydroxy (4β‐OH) cholesterol], the “Plasma concentration ratio (4β-OH cholesterol/cholesterol), HCD versus ND” value in the data set with CYP3A4 [1] was “not significantly different”. Also, the “Plasma level in mice fed HCD compared with mice fed ND” value with CYP3A4 [1] (HCD versus ND) is “significantly higher”. In the data set with CYP3A4 [1] (HCD versus ND, Figure S4A), the “Increase of plasma level by HCD” value is reported as “about twofold”.

In the case of `Cc1nnc2n1-c1ccc(Cl)cc1C(c1ccccc1Cl)=NC2O` (stereo not drawn) [4‐OH TRZ, 4‐hydroxy triazolam], the “Plasma concentrations and AUC values in HCD mice compared with ND mice” value in the data set on CYP3A4 [2] was “lower”.

As for `C[C@H](CCC(=O)O)[C@H]1CC[C@H]2[C@@H]3[C@H](O)C[C@@H]4C[C@H](O)CC[C@]4(C)[C@H]3C[C@H](O)[C@]12C` [CA, cholic acid], the figures for the Plasma concentration in data set [3] (setting [6]) and in data set [3] (setting [7]) were 1.35 ± 1.869 µg/mL and 0.312 ± 0.243 µg/mL, respectively.

`CC(C)CCC[C@@H](C)[C@H]1CC[C@H]2[C@@H]3CC=C4C[C@@H](O)CC[C@]4(C)[C@H]3CC[C@]12C` [Cholesterol, cholesterol]: the values for the Plasma concentration in data set [3] (setting [6]) and in data set [3] (setting [7]) were 2250 ± 336 µg/mL and 1361 ± 152 µg/mL, respectively.

Turning to `CC(=O)N1CCN(c2ccc(OCC3COC(Cn4ccnc4)(c4ccc(Cl)cc4Cl)O3)cc2)CC1` (stereo not drawn) [KCZ, ketoconazole], the “Effect on microsomal activity of TRZ hydroxylation in liver” value in the data set on CYP3A4 [4] is “inhibited”. Also, the “Percentage of decline in AUCRα-OH” value in the data set with CYP3A4 [5] (HCD mice) is recorded as 46%. In the data set on CYP3A4 [5] (ND mice), the “Percentage of decline in AUCRα-OH” value was determined as 49%. Moreover, in the data set on CYP3A4 [5] (setting [8]), the “Effect of pretreatment on plasma concentrations of TRZ” value is “tended to increase” and the “Effect of pretreatment on plasma concentrations of α-OH TRZ” value is reported as “decrease”.

As for `Cc1nnc2n1-c1ccc(Cl)cc1C(c1ccccc1Cl)=NC2` [TRZ, triazolam, reference compound], the “Plasma concentrations and AUC values in HCD mice compared with ND mice” value in the data set on CYP3A4 [2] is reported as “lower”.

On to `OCc1nnc2n1-c1ccc(Cl)cc1C(c1ccccc1Cl)=NC2` [α‐OH TRZ, α‐hydroxy triazolam], for which the “Plasma concentrations and AUC values in HCD mice compared with ND mice” value in the data set with CYP3A4 [2] is “lower”.
